The assay concerns ET (Huh-lucubineo-ET) cell line harboring I389luc-ubi-neo/NS3-3′/ET HCV replicon. In words: Replicon assay (HCV replicon, luciferase readout). The assay is classed as cell-based. Particulars: Hepatitis C virus. The procedure:
A cell line, ET (Huh-lucubineo-ET) is used for screening of compounds for inhibiting HCV RNA dependent RNA polymerase. The ET cell line is stably transfected with RNA transcripts harboring a I389luc-ubi-neo/NS3-3′/ET; replicon with firefly luciferase-ubiquitin-neomycin phosphotransferase fusion protein and EMCV-IRES driven NS3-5B polyprotein containing the cell culture adaptive mutations (E1202G; T1280I; K1846T) (Krieger at al, 2001 and unpublished). The ET cells are grown in DMEM (Dulbeco's Modified Eagle's Medium), supplemented with 10% fetal calf serum, 2 mM Glutamine, Penicillin (100 IU/mL)/Streptomycin (100 μg/mL), 1× nonessential amino acids, and 250 μg/mL G418 (“Geneticin”). They are all available through Life Technologies (Bethesda, Md.). The cells are plated at 0.5−1.0×10^4 cells/well in the 96 well plates and incubated for 24 hrs before adding test compound. The compounds are added to the cells to achieve a final concentration of 0.1 nM to […] and a final DMSO (dimethylsulfoxide) concentration of 0.5%. Luciferase activity is measured 48-72 hours later by adding a lysis buffer and the substrate (Catalog number Glo-lysis buffer E2661 and Bright-Glo luciferase system E2620 Promega, Madison, Wis.). Cells should not be too confluent during the assay. Percent inhibition of replication data is plotted relative to no compound control. Under the same condition, cytotoxicity of the compounds are determined using cell proliferation reagent, WST-1 (Roche, Germany). The compounds showing antiviral activities, but no significant cytotoxicities are chosen to determine EC50 and TC50. For these determinations, a 10 point, 2-fold serial dilution for each compound was used, which spans a concentration range of 1000 fold. EC50 and similarly TC50 values were calculated by fitting % inhibition at each concentration to the following equation:
% inhibition=100%/[(EC50/[I])^b+1]
where b is Hill's coefficient.
`O=C(c1nc2c(C(F)(F)F)cc(C3=CCCC3)cn2c1Cl)N1CC=C(c2nccs2)C1` [Compound 150, (3-Chloro-6-cyclopent-1-enyl-8-trifluoromethyl-imidazo[1,2-a]pyridin-2-yl)-(3-thiazol-2-yl-2,5-dihydro-pyrrol-1-yl)-methanone] showed a 50% effective concentration (EC50) of 0.00686 µM.

In the case of `O=C(c1nc2c(C(F)(F)F)cc(C3=CCCC3)cn2c1Cl)N1CC=C(c2ncccc2F)CC1` [Compound 151, (3-Chloro-6-cyclopent-1-enyl-8-trifluoromethyl-imidazo[1,2-a]pyridin-2-yl)-(3-fluoro-3′,6′-dihydro-2′H-[2,4′]bipyridinyl-1′-yl)-methanone], the EC50 came to 0.734 µM.

`O=C(c1nc2c(C(F)(F)F)cc(-c3ccoc3)cn2c1Cl)N1CCC(NCC2CC2)CC1` [Compound 152, (3-Chloro-6-furan-3-yl-8-trifluoromethyl-imidazo[1,2-a]pyridin-2-yl)-[4-(cyclopropylmethyl-amino)-piperidin-1-yl]-methanone] had an EC50 of 19 µM.

In turn, `COC(=O)C(NC(=O)c1cn2cc(-c3ccoc3)cc(C(F)(F)F)c2n1)C(C)(C)C` (stereo not drawn) [Compound 154, 2-[(6-Furan-3-yl-8-trifluoromethyl-imidazo[1,2-a]pyridine-2-carbonyl)-amino]-3,3-dimethyl-butyric acid methyl ester] gave an EC50 of 27.7 µM. The EC50 values of the last two compounds are within 1.5-fold of each other.

Turning to `COC(=O)C(Cc1cnc[nH]1)NC(=O)c1cn2cc(-c3ccoc3)cc(C(F)(F)F)c2n1` (stereo not drawn) [Compound 155, 2-[(6-Furan-3-yl-8-trifluoromethyl-imidazo[1,2-a]pyridine-2-carbonyl)-amino]-3-(3H-imidazol-4-yl)-propionic acid methyl ester], a half-maximal response (EC50) required 44.5 µM.

Compound `COC(=O)C(CC(C)C)NC(=O)c1cn2cc(-c3ccoc3)cc(C(F)(F)F)c2n1` (stereo not drawn) [Compound 156, 2-[(6-Furan-3-yl-8-trifluoromethyl-imidazo[1,2-a]pyridine-2-carbonyl)-amino]-4-methyl-pentanoic acid methyl ester] registered a concentration for a half-maximal effect (EC50) of 46.8 µM.

Compound `COC(=O)C(Cc1ccccc1)NC(=O)c1cn2cc(-c3ccoc3)cc(C(F)(F)F)c2n1` (stereo not drawn) [Compound 157, 2-[(6-Furan-3-yl-8-trifluoromethyl-imidazo[1,2-a]pyridine-2-carbonyl)-amino]-3-phenyl-propionic acid methyl ester] gave an EC50 above 50 µM.

The compound `CC(C)CCOC1CCN(C(=O)c2nc3c(C(F)(F)F)cc(-c4ccoc4)cn3c2Cl)CC1` [Compound 158, (3-Chloro-6-furan-3-yl-8-trifluoromethyl-imidazo[1,2-a]pyridin-2-yl)-[4-(3-methyl-butoxy)-piperidin-1-yl]-methanone] yielded a half-maximal effective concentration (EC50) of 8.11 µM.

With `O=C1CCC=C1C1=CCN(C(=O)c2nc3c(C(F)(F)F)cc(-c4ccoc4)cn3c2Cl)CC1` [Compound 159, 2-[1-(3-Chloro-6-furan-3-yl-8-trifluoromethyl-imidazo[1,2-a]pyridine-2-carbonyl)-1,2,3,6-tetrahydro-pyridin-4-yl]-cyclopent-2-enone], the EC50 is 0.247 µM.

On to `O=C(c1nc2c(C(F)(F)F)cc(-c3ccoc3)cn2c1Cl)N1CC[C@@H](NC(=O)C(F)(F)F)C1` [Compound 162, N-[1-(3-Chloro-6-furan-3-yl-8-trifluoromethyl-imidazo[1,2-a]pyridine-2-carbonyl)-pyrrohdin-3-yl]-2,2,2-trifluoro-acetamide], for which it took 43.5 µM to reach a half-maximal effect (EC50).

Regarding `FC(F)(F)c1cc(-c2ccoc2)cn2cc(CN3CC=C(c4nccs4)C3)nc12` [Compound 163, 6-Furan-3-yl-2-(3-thiazol-2-yl-2,5-dihydro-pyrrol-1-ylmethyl)-8-trifluoromethyl-imidazo[1,2-a]pyridine], the response was half-maximal at 42.4 µM (EC50). This EC50 and that of the compound before are within 1.5-fold of each other.

Consider `C=CC(=O)N[C@@H]1CCN(C(=O)c2nc3c(C(F)(F)F)cc(-c4ccoc4)cn3c2Cl)C1` [Compound 167, N-[1-(3-Chloro-6-furan-3-yl-8-trifluoromethyl-imidazo[1,2-a]pyridine-2-carbonyl)-pyrrolidin-3-yl]-acrylamide], for which the EC50 was found to be 1.68 µM.

These data come from US20100204265A1 (priority 2009, published 2010).
